Data from ChEMBL document CHEMBL1155762, “A new naphthopyrone derivative from Cassia quinquangulata and structural revision of quinquangulin and its glycosides” (2001).
In brackets after ≈: the same amount, converted by molar mass.

How the values were obtained:
Staphylococcus aureus [1] = assay: Antibacterial activity against Staphylococcus aureus ATCC 6538 after 24 hrs; format: functional; settings: ATCC 6538, 24 h
Staphylococcus aureus [2] = assay: Antibacterial activity against methicillin-resistant Staphylococcus aureus ATCC 33591 after 24 hrs; format: functional; settings: ATCC 33591, 24 h

SMILES	MIC (Staphylococcus aureus [1]) [µg/mL]	MIC (Staphylococcus aureus [2]) [µg/mL]
COc1cc(O)c2c(O)c3c(=O)cc(C)oc3cc2c1C [QUINQUANGULIN]	3.12 (≈ 10.9 µM)	6.25 (≈ 21.8 µM)
CC[C@H]1OC(=O)[C@H](C)[C@@H](O[C@H]2C[C@@](C)(OC)[C@@H](O)[C@H](C)O2)[C@H](C)[C@@H](O[C@@H]2O[C@H](C)C[C@H](N(C)C)[C@H]2O)[C@](C)(O)C[C@@H](C)C(=O)[C@H](C)[C@@H](O)[C@]1(C)O [ERYTHROMYCIN]	1.25 (≈ 1.7 µM)	–
CO[C@H]1/C=C/O[C@@]2(C)Oc3c(C)c(O)c4c(O)c(c(/C=N/N5CCN(C)CC5)c(O)c4c3C2=O)NC(=O)/C(C)=C\C=C\[C@H](C)[C@H](O)[C@@H](C)[C@@H](O)[C@@H](C)[C@H](OC(C)=O)[C@@H]1C [RIFAMPIN]	0.005 (≈ 0.00608 µM)	< 0.005
